Activity calls are given as the source filed them. The calls are words filed in the database; no cut-off is given here.
Tests used:
[1] = tested on: THP-1; experiment: Induction of [3H]cholesterol efflux in human THP1 cells assessed as lipid accumulation; format: functional, cell-based
[2] = Plasma concentration in high fat/high cholesterol fed LDLR-deficient mouse at 3 mg/kg, qd administered with diet for 8 weeks measured after 3 hrs of last dose; format: ADME, organism-based; set-up: dose 3 mg/kg; conditions: po
[3] = target: T1, Mineralocorticoid receptor (Homo sapiens) (UniProt P08235); experiment: Binding affinity to mineralocorticoid receptor
T1 sequence (whole entry): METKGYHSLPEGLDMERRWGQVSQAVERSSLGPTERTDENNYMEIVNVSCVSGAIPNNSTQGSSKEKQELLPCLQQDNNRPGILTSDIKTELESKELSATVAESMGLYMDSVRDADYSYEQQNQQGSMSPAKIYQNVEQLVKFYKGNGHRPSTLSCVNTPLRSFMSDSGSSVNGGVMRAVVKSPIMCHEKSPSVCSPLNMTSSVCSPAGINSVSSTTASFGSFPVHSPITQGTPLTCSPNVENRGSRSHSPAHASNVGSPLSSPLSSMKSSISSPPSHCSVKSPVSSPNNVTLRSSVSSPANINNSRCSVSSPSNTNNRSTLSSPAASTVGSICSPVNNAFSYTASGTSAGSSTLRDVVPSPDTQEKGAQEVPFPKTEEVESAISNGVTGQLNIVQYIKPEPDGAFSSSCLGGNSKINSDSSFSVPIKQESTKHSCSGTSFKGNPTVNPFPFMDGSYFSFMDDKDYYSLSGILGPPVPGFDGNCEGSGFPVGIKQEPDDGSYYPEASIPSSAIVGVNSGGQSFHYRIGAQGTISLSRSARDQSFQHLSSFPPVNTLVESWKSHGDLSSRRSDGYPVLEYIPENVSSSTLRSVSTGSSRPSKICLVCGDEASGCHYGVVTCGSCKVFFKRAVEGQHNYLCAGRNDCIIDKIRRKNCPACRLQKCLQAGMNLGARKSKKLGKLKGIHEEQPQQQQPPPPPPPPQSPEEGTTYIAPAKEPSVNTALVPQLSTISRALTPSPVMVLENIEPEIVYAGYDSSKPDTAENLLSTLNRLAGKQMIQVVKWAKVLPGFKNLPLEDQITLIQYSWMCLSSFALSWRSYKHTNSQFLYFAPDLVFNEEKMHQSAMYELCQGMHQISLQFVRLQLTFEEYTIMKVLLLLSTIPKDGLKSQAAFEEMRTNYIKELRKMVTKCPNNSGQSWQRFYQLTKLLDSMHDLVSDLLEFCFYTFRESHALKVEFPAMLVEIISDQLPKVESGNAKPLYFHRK

[4] = target: T2, Nuclear receptor subfamily 1 group I member 2 (Homo sapiens, UniProt O75469); experiment: Binding affinity to PXR
T2 sequence (O75469 whole entry): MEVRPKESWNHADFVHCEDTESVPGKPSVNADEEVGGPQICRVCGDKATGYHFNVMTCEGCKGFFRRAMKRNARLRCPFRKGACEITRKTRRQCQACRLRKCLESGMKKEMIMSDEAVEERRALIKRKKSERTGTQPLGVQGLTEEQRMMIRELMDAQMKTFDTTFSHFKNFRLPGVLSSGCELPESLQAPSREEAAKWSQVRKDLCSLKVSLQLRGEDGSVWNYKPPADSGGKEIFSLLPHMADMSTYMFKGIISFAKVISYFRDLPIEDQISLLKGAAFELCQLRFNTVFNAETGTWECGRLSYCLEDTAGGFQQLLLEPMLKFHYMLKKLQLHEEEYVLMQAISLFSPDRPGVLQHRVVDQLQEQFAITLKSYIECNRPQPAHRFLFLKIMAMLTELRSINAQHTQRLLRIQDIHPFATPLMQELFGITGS

[5] = target: Oxysterols receptor LXR-alpha (Homo sapiens, UniProt Q13133)
Oxysterols receptor LXR-alpha, sequence (Q13133 whole entry, looked up): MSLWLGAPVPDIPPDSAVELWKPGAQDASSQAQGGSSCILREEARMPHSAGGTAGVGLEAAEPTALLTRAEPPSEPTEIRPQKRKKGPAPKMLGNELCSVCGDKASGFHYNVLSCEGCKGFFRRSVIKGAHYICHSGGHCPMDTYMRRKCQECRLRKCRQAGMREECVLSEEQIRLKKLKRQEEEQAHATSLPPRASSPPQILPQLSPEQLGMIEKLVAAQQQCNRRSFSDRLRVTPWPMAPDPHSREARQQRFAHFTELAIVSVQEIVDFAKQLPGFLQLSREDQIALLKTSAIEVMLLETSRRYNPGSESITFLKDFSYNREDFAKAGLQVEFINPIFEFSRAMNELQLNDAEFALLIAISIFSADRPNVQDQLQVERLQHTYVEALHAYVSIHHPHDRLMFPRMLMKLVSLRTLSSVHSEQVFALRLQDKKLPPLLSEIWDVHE

[6] = tested on: THP-1; experiment: Induction of [3H]cholesterol efflux in human THP1 cells
[7] = target: Oxysterols receptor LXR-beta (Homo sapiens, UniProt P55055)
Oxysterols receptor LXR-beta, sequence (P55055 whole entry): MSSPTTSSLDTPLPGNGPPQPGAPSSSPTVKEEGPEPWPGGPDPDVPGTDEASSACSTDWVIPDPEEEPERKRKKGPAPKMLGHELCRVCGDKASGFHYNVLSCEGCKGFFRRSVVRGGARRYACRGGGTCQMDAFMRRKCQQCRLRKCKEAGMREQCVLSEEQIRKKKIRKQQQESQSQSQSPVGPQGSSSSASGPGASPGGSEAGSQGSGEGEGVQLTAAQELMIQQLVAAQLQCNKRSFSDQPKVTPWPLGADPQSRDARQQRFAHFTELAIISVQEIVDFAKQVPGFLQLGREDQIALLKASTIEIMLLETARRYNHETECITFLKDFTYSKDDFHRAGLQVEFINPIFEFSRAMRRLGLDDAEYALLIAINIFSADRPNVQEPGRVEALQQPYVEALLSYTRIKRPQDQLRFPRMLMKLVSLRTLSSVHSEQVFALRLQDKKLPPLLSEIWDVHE

[8] = tested on: Mus musculus; experiment: Antiatherosclerotic activity against high fat/high cholesterol fed LDLR-deficient mouse assessed as reduction in aortic arch lesion burden at 0.6 mg/kg/day administered with diet relative to control; format: functional, Pharyngeal arch artery; set-up: scale not given: the % may be the effect or the level left
[9] = target: T3, Glucocorticoid receptor (Homo sapiens) (UniProt P04150); experiment: Binding affinity to glucocorticoid receptor
T3 sequence (whole entry): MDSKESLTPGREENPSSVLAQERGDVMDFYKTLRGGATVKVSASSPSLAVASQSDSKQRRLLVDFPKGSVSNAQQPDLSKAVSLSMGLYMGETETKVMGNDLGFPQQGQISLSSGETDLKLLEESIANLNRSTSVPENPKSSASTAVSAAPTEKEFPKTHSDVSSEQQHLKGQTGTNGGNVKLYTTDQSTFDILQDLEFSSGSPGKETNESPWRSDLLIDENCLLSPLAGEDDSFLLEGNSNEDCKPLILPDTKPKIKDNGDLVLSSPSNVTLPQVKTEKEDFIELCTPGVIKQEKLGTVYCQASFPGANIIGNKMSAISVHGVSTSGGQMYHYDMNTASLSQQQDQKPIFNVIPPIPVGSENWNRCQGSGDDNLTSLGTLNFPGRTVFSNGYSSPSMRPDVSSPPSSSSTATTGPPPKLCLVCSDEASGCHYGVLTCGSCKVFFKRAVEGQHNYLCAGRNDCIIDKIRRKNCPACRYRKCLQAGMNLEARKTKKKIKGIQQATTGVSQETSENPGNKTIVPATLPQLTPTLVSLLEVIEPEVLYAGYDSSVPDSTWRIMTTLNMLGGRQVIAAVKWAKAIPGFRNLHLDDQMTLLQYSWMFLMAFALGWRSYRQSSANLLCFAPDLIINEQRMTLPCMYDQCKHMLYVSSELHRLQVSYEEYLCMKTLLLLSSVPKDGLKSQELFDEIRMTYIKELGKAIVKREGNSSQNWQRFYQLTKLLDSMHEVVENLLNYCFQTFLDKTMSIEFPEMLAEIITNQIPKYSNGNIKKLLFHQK

[10] = Cmax in C57 mouse at 10 mg/kg, po; format: ADME, organism-based; set-up: dose 10 mg/kg, route oral; conditions: in vivo
[11] = tested on: Mus musculus; experiment: Antiatherosclerotic activity against high fat/high cholesterol fed LDLR-deficient mouse assessed as pltp gene regulation at 3 mg/kg administered with diet for 7 days by Experion chip analysis; format: functional, organism-based; set-up: dose 3 mg/kg
[12] = tested on: Mus musculus; experiment: Antiatherosclerotic activity against high fat/high cholesterol fed LDLR-deficient mouse assessed as IPl gene regulation at 3 mg/kg administered with diet for 7 days by Experion chip analysis; format: functional, organism-based; set-up: dose 3 mg/kg
[13] = tested on: Mus musculus; experiment: Antiatherosclerotic activity against high fat/high cholesterol fed LDLR-deficient mouse assessed as Lipc gene regulation at 0.6 mg/kg administered with diet for 7 days by Experion chip analysis; format: functional, organism-based; set-up: dose 0.6 mg/kg

EC50 [1] [nM] | concentration at 3 h [2] [ng/mL] | Activity [3] | Activity [4] | EC50 [5] [nM] | EC50 [7] [nM] | Activity [9] | Cmax [10] [ng/mL] | SMILES | Activity [6] | Activity [8] [%] | Activity [11] | Activity [12] | Activity [13]
72 | 10800 | inactive | Not Active | 1700 | 580 | inactive | 229 | Cc1nc2c(C(F)(F)F)cccc2nc1-c1ccc(-c2cccc(S(C)(=O)=O)c2)cc1 | Dose-dependent effect | 20 |  |  | 
 |  |  |  |  |  |  |  | O=C(O)Cc1cccc(OCCCN(Cc2cccc(C(F)(F)F)c2Cl)CC(c2ccccc2)c2ccccc2)c1 |  |  | Active | Active | Active

— ChEMBL document CHEMBL1156230, “Identification of phenylsulfone-substituted quinoxaline (WYE-672) as a tissue selective liver X-receptor (LXR) agonist” (J Med Chem, 2010)
